Test results as given in ChEMBL document CHEMBL1201862, “PubChem BioAssay data set” (2004).
Active and inactive are the calls of the source.

Experiments:
Cytochrome P450 2D6 = Cytochrome P450 2D6 (Homo sapiens, UniProt P10635);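 note: CYP2D6 member of a cytochrome P450 panel assay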
[1] = alpha-synuclein stem-loop luciferase translation blockers – H4 neuroglioma cells, luminescence, confirmation (AID 1988); format: functional, cell-based
Cytochrome P450 1A2 = biological target: T1, Cytochrome P450 1A2 (Homo sapiens, UniProt P05177);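 note: PubChem cytochrome P450 panel assay, CYP1A2 panel member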
T1 sequence (P05177 whole entry): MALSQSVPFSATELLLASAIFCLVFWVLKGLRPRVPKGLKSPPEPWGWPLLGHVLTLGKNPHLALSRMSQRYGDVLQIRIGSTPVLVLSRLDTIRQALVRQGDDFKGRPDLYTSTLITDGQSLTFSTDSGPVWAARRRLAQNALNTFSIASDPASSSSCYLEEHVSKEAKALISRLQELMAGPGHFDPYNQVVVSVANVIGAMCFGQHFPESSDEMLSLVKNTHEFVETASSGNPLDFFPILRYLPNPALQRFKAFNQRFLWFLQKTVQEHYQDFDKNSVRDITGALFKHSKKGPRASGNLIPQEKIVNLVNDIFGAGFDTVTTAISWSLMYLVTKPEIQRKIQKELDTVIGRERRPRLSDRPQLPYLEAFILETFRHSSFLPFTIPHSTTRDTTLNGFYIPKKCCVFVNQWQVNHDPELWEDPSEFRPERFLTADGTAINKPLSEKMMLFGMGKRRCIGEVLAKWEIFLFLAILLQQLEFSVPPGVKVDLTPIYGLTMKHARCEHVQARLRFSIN

[2] = Luminescence Cell-Based Dose Response HTS to Identify Inhibitors of 5'UTR Stem-Loop Driven Prion Protein mRNA Translation in H4 Neuroglioblastoma Cells. [Related pubchem assays: 1827 (Project Summary), 1813 (Primary HTS)]; format: functional
[3] = luciferase reporter signal suppression in cells – H4 neuroglioma cells, luminescence, dose response (AID 1990); format: functional, cell-based
[4] = intracellular Trypanosoma cruzi inhibitors in host cells – cell-based, plate reader, cherry-pick samples, set 3, dose response (AID 651818); format: functional;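 note: compounds incubated with infected cells for about four days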
[5] = Luminescence Cell-Based Dose Retest to Confirm Inhibitors of Cancer Stem Cells. [Related pubchem assays (depositor defined):AID2717, AID2721]; format: functional; details: Homo sapiens
Cytochrome P450 2C9 = Cytochrome P450 2C9 (Homo sapiens, UniProt P11712)
[6] = biological target: T2, Heat shock factor protein 1 (Mus musculus, UniProt P38532); assay: decrease of HSF1-responsive luciferase luminescence – cell-based, NIH3T3, dose retest, confirmation (AID 2382); format: functional;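 note: NIH3T3 fibroblasts with HSF1-driven luciferase reporter stressed by proteasome inhibitor MG132; luminescence from HSF1-driven luciferase expression after 8 hours of MG132 stress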
T2 sequence (P38532 whole entry): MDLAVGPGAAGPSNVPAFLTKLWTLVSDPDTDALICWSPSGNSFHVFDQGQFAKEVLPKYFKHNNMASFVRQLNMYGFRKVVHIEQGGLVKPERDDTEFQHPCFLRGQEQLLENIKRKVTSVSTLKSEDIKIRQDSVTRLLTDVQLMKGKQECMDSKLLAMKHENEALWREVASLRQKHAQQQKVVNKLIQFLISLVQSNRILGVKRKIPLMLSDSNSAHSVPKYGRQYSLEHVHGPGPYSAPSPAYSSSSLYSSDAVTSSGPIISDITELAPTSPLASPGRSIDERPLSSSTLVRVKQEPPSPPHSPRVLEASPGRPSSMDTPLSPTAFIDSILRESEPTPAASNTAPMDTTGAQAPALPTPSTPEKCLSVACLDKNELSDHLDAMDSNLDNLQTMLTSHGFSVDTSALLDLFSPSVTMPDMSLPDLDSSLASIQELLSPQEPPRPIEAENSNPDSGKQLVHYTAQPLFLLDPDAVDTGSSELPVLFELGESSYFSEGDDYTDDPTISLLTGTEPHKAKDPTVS

Streptococcus = assay: GAS UMAA2166 growth inhibition – luminescence, BacTiterGlo, counter-screen for streptokinase expression inhibitor project, dose response (AID 1915); format: functional, organism-based;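 note: potency for reduction of bacterial viability or growth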
Streptokinase A = biological target: T3, Streptokinase A (Streptococcus pyogenes serotype M1, UniProt P10520); assay: viability-normalized secreted streptokinase activity reduction – plasminogen activation absorbance, OD405, dose response (AID 1914); format: functional, Streptococcus pyogenes M1 GAS;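 note: secreted streptokinase activity via plasminogen activation per viability signal from cell pellet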
T3 sequence (P10520 whole entry): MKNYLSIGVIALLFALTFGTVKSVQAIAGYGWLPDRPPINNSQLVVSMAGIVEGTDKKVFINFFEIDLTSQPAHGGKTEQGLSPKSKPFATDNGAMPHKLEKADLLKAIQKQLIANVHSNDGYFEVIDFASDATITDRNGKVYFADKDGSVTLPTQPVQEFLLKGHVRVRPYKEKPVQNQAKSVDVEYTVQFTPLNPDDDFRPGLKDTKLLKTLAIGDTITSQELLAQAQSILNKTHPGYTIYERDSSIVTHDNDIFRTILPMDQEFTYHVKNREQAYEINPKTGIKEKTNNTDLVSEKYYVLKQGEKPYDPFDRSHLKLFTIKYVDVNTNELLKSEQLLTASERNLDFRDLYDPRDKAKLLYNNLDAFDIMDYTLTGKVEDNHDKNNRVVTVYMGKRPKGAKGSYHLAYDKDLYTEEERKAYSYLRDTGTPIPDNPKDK

[7] = tested on: Streptococcus sp. 'group A'; assay: Streptococcus pyogenes SK(-)GAS viability under kanamycin – luminescence, BacTiterGlo, confirmation, counter-screen for streptokinase expression inhibitor project, dose response (AID 1900); format: functional, organism-based
Protein RecA = biological target: T4, Protein RecA (Mycobacterium tuberculosis, UniProt P9WHJ3); assay: Fluorescence Cell-Free Homogeneous Dose Retest to Identify Inhibitors of RecA-Intein Splicing Activity. [Related pubchem assays (depositor defined):AID2097, AID2223, AID489010, AID492950]; format: functional
T4 sequence (P9WHJ3 whole entry): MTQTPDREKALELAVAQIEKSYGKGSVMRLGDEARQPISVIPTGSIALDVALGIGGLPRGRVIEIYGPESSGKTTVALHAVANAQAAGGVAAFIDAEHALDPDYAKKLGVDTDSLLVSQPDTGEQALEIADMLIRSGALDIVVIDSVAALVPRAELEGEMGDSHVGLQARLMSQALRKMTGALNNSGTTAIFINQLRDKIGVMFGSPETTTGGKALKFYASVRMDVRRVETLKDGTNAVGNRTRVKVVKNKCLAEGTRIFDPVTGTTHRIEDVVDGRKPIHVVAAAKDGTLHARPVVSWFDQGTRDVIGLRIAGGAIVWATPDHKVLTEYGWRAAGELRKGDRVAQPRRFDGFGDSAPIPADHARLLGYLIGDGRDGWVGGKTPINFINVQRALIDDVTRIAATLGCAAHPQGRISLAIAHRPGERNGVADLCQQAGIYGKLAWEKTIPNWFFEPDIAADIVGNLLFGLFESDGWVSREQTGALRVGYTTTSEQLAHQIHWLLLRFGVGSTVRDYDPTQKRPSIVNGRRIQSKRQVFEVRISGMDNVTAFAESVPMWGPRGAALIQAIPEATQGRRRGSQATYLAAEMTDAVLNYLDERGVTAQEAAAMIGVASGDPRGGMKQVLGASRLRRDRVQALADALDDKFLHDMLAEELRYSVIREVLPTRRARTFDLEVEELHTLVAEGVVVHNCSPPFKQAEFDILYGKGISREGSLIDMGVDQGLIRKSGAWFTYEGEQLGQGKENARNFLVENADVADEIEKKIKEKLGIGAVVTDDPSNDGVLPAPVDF

[8] = biological target: T5, Replicative DNA helicase DnaB (Mycobacterium tuberculosis, UniProt P9WMR3); assay: DnaB intein splicing inhibitors, dose response, biochemical, cell-free fluorescence (AID 449749); format: functional
T5 sequence (P9WMR3 whole entry): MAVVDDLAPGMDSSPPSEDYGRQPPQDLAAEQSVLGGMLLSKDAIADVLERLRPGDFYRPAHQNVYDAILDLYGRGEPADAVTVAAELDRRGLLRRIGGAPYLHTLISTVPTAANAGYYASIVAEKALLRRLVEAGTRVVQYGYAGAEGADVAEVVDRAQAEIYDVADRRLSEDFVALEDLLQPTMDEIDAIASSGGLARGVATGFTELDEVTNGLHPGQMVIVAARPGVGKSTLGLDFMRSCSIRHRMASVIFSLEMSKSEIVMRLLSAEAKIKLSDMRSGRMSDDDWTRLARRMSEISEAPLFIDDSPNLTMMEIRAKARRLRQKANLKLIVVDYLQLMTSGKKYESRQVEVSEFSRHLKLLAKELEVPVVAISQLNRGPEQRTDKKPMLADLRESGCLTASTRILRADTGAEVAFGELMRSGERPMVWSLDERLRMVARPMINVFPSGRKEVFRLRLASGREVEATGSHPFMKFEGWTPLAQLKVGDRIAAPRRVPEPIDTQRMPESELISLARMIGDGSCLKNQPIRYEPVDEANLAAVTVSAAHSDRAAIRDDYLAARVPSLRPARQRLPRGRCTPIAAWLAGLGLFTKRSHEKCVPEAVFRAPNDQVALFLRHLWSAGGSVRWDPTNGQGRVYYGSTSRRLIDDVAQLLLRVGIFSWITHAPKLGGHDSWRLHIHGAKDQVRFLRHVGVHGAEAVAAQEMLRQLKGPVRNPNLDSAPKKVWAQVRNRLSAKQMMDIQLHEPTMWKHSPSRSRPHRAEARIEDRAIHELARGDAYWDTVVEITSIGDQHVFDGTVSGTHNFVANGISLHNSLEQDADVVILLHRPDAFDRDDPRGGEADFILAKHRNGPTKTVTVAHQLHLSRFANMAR

Cytochrome P450 3A4 = Cytochrome P450 3A4 (Homo sapiens, UniProt P08684);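 note: CYP3A4 tested as one member of a cytochrome P450 panel screen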
Cytochrome P450 2C19 = Cytochrome P450 2C19 (Homo sapiens, UniProt P33261); assay: Cytochrome panel assay with activity outcomes. Panel member name: p450-cyp2c19 Compounds with AC50 equal or less than 10 uM are considered active; format: functional; details: read-out: AC50
Sequence of Cytochrome P450 2C19 (P33261 whole entry): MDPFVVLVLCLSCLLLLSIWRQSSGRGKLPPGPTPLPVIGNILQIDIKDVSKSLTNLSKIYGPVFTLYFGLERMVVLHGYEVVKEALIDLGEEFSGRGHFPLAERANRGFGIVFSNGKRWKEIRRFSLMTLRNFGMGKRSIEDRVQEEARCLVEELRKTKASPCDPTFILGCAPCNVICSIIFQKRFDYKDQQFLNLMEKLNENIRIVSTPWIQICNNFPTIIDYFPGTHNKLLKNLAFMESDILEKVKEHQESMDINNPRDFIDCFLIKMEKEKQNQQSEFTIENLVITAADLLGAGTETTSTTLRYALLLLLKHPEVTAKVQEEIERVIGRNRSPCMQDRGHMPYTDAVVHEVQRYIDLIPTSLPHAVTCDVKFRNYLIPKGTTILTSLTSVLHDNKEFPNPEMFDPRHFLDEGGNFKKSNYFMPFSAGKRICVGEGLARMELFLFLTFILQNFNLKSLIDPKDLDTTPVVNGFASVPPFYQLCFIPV

Sequence of Cytochrome P450 2C9 (P11712 whole entry): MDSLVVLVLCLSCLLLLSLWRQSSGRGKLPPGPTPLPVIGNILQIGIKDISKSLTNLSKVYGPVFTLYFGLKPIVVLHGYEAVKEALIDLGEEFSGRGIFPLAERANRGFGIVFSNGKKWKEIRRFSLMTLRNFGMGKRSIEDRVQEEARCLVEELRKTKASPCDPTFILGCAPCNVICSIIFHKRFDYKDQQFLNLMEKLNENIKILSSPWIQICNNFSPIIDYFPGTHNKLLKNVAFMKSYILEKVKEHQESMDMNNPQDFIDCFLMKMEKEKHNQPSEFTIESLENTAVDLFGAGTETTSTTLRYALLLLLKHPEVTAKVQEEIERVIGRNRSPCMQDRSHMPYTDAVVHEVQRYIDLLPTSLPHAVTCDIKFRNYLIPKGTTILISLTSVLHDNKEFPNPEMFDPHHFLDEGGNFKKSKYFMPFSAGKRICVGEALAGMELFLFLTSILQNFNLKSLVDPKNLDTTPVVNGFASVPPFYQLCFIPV
Sequence of Cytochrome P450 2D6 (P10635 whole entry): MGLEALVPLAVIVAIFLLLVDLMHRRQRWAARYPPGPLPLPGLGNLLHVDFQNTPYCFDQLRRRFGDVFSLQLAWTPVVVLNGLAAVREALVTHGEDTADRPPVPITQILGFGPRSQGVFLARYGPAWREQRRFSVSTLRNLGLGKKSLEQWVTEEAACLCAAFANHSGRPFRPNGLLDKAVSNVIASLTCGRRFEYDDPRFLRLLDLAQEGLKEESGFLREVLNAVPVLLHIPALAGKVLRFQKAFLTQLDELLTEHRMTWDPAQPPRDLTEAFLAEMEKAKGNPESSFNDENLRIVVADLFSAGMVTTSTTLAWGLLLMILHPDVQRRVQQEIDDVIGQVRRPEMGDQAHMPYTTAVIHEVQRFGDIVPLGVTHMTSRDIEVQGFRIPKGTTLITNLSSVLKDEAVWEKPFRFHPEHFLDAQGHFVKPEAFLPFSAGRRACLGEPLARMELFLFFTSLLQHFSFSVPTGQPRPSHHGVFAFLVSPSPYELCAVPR
Sequence of Cytochrome P450 3A4 (P08684 whole entry): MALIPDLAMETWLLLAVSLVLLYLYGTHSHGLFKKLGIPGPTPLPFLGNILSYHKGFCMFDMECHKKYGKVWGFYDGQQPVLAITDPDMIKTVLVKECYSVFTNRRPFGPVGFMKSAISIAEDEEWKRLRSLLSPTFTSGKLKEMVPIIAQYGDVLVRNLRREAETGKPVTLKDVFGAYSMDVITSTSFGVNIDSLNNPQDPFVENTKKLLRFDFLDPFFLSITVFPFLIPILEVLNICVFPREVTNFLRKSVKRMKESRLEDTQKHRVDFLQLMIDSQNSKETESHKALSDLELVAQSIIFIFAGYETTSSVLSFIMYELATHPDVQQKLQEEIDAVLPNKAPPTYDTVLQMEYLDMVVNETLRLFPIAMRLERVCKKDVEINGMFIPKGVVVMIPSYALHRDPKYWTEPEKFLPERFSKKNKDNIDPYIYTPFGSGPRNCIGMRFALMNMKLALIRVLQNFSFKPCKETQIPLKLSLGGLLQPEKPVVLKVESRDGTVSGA

With O=C(Nc1ccccc1)OCc1cc(-c2ccc(Cl)cc2)on1 the AC50 (Cytochrome P450 2D6) was 3.16 µM (inconclusive).
With O=C(Cc1ccc(-n2c(=O)[nH]c3ccccc3c2=O)cc1)N1CCN(c2cccc(Cl)c2)CC1 the AC50 (Cytochrome P450 2D6) was 14.1 µM (inconclusive), the EC50 [1] was > 120 µM (not active) and the AC50 (Cytochrome P450 1A2) was 17.8 µM (inconclusive). The EC50 [2] was 25.3 µM (active) and the EC50 [3] was 23 µM (active).
With C[C@@H]1CN([C@@H](C)CO)C(=O)Cc2cc(NC(=O)Cc3ccccc3)ccc2O[C@@H]1CN(C)Cc1ccc(C(=O)Nc2ccccc2N)cc1 the AC50 [4] was 3.09 µM (active).
In the case of CCN(CC)CCC(=O)Nc1ccc2c(c1)N(C(=O)CN(CC)CC)c1ccccc1CC2, the AC50 (Cytochrome P450 2D6) was 15.8 µM (inconclusive).
For C/C(CCN1CCCCc2nc(C)c(C)cc21)=N\O[C@@H](C)c1cc(-c2c(C)cc(C)cc2C)no1, the AC50 (Cytochrome P450 2D6) was 3.16 µM (inconclusive).
With Cc1c(C2(O)CCCCC2)[nH]c2ccc(C(F)(F)F)cc12 the AC50 [5] was 5.63 µM (active).
In the case of C[C@@H]1CN([C@H](C)CO)C(=O)Cc2cc(NS(=O)(=O)c3ccccc3)ccc2O[C@@H]1CN(C)Cc1ccc(-c2ccccc2)cc1, the AC50 [4] was 3.26 µM (active).
With C[C@@H]1CN([C@@H](C)CO)C(=O)c2cccc(NS(=O)(=O)c3ccc(Cl)cc3)c2O[C@@H]1CN(C)C(=O)Nc1ccc(C(F)(F)F)cc1 the AC50 [4] was 3.58 µM (active).
In the case of c1cc(NC2CC2)nc(-c2ccoc2)n1, the AC50 (Cytochrome P450 2D6) was 39.8 µM (inconclusive).
With Cc1ccc(COc2ccccc2-c2cc(C(=O)N/N=C/c3cccnc3)[nH]n2)cc1 the AC50 [5] was 0.778 µM (active).
In the case of NCCCCCc1nnc(SCc2ccccc2Cl)o1, the EC50 [1] was 12.8 µM (active), the AC50 (Cytochrome P450 1A2) was 28.2 µM (inconclusive) and the EC50 [2] was 15.7 µM (active). The EC50 [3] was 14.7 µM (active) and the AC50 (Cytochrome P450 2C9) was 25.1 µM (inconclusive).
In the case of Cc1ccc(CNc2nc(-c3cccs3)nc3ccccc23)cc1, the AC50 [5] was 7 µM (active).
In the case of O=C(Nc1ccc2c(c1)OCCO2)NC1(C(F)(F)F)Oc2ccccc2O1, the EC50 [1] was > 120 µM (not active), the EC50 [6] was 12.5 µM (active) and the EC50 [2] was > 120 µM (not active). For the same compound, the EC50 [3] was > 120 µM (not active).
With COc1cccc(S(=O)(=O)NCc2ccc(C(=O)Nc3cccc(Cl)c3)cc2)c1 the AC50 [5] was 4.31 µM (active).
In the case of CCCc1nc(NCc2ccccc2)c(C#N)c2c1CCCC2, the EC50 (Streptococcus) was 18.5 µM (active), the EC50 [1] was > 120 µM (not active) and the EC50 (Streptokinase A) was 3.06 µM (active). The EC50 [2] was > 120 µM (not active), the EC50 [3] was > 120 µM (not active) and the EC50 [7] was 14.9 µM (active).
For O=C(CSc1nnc(-c2ccco2)n1-c1ccccc1)NCc1ccco1, the AC50 (Cytochrome P450 2D6) was 14.1 µM (inconclusive).
For CN1C(=O)/C(=C/c2cccc(Cl)c2)Sc2ccc(C(=O)NCc3cccnc3)cc21, the AC50 [5] was 1.63 µM (active).
For Cc1ccc(-c2cc([C@H]3[C@@H]4C=CCC[C@@]4(C)C(=O)N3Cc3ccccc3)ccc2F)cc1, the EC50 (Streptococcus) was 18 µM (active), the EC50 (Streptokinase A) was 4.92 µM (active) and the AC50 [5] was 3.16 µM (active). The EC50 [7] was 5.4 µM (active).
For CCCc1n[nH]c2c1C(c1ccncc1)C(C#N)=C(N)O2 (stereo unspecified), the AC50 (Cytochrome P450 2D6) was 25.1 µM (inconclusive), the AC50 (Cytochrome P450 1A2) was 25.1 µM (inconclusive) and the EC50 (Protein RecA) was 17.6 µM (active). The AC50 [8] was 45.8 µM (active) and the AC50 (Cytochrome P450 3A4) was 39.8 µM (inconclusive).
In the case of O=c1c(-c2cc(F)cc(F)c2)nc2cnc(N3CCNCC3)nc2n1CCc1ccccc1, the AC50 (Cytochrome P450 2D6) was 20 µM (inconclusive) and the AC50 (Cytochrome P450 1A2) was 20 µM (inconclusive).
In the case of CCC/C=C(\CCC)C(NP(=O)(c1ccccc1)c1ccccc1)c1ccccc1 (stereo unspecified), the AC50 (Cytochrome P450 2D6) was 39.8 µM (inconclusive), the AC50 (Cytochrome P450 2C19) was 20 µM (inconclusive) and the AC50 (Cytochrome P450 1A2) was 15.8 µM (inconclusive). The AC50 (Cytochrome P450 2C9) was 25.1 µM (inconclusive).
In the case of CC1SC(N/N=C/c2cccc([N+](=O)[O-])c2)=NC1=O (stereo unspecified), the AC50 [5] was 2.38 µM (active).
In the case of CC(O)(CS(=O)(=O)Cc1ccc(Cl)cc1)C(=O)Nc1cccc(C(F)(F)F)c1 (stereo unspecified), the AC50 (Cytochrome P450 2D6) was 15.8 µM (inconclusive) and the AC50 (Cytochrome P450 2C9) was 8.91 µM (inconclusive).
